Assay results from patent US11066401B2, “Pyrimidine compound, chloride salt thereof, and manufacturing and application of same” (SHENZHEN HAIBIN PHARMACEUTICAL CO., LTD, priority 2016, dated 2021).
Counter-ions that a name gives are not always drawn. Like-named read-outs stand apart in the source and are kept apart here.

What was measured:
[1] = Test for hygroscopicity (Chinese Pharmacopeia 2010, Appendix XIX J); format: physicochemical
Procedure: The experiment was carried out according to Guiding Principles of Drug Hygroscopicity Test, Appendix XIX J, Second Part, Chinese Pharmacopeia (2010), the weight increased by hygroscopy of samples (compound shown in Formula (I) and salts thereof prepared in EXAMPLES 1-17) was calculated respectively, the results were shown in Table 4.

[2] = Test for stability: related substances under high temperature and illumination (HPLC); format: physicochemical; settings: for Related substances Day 10 under high temperature / Related substances Day 10 under illumination condition / Related substances Day 0: acetonitrile-water (1:1) solution; for Related substances Day 10 under high temperature: 60° C., in % (unit assumed); for Related substances Day 10 under high temperature / Related substances Day 10 under illumination condition: 10 days, area normalization; for Related substances Day 10 under illumination condition: 4500 lx±500 lx; for Related substances Day 0: day 0, area normalization
Procedure: The experiment was carried out according to Guiding Principles of Active Pharmaceutical Ingredient and Pharmaceutical Formulation Stability Test, Appendix XIX C, Second Part, Chinese Pharmacopeia (2010), the increase of related substance of the solution of compounds shown in formula (I) and salts thereof (EXAMPLES 1-17) under high temperature condition (60° C.) and illumination (the light intensity was 4500 lx±500 lx) was detected to evaluate the stability.
Wherein, the method for detecting related substance was shown as following:
HPLC: Waters 2695 UV Detector
Chromatographic Column: Diamonsil C18 (2) 5 μm, 150×4.6 mm
Detection wavelength: 322 nm
Column temperature: 30° C.
Mobile phase B: buffer (900 ml water+10 ml triethylamine+5 ml phosphoric acid, being diluted to 1000 ml with water)
The testing samples were prepared by using acetonitrile-water (1:1) solution with a concentration of 10-100 μg/ml, kept under high temperature (60° C.) and illumination (the light intensity was 4500 lx±500 lx) respectively for 10 days, the mass of related substance was determined on day 0 and day 10 (calculated by using area normalization), the results were shown in Table 6.

[3] = Pharmacokinetic test, absolute bioavailability in rats; format: in vivo; settings: male SD rats, i.g. 40 mg/kg vs i.v. 20 mg/kg
Procedure: 48 male SD rats with a body weight of 200-220 g were randomly divided into 8 groups with 6 mice each group, administered the compound shown in Formula (I), the hydrochloride salt, mesylate and acetate thereof intragastrically (i.g.) and intravenously (i.v.) respectively, and the protocol was shown in Table 7:
Intragastric administration: 2% of HPMC
Intravenous administration: a solution prepared with 20% PEG
The rats were fasted for 12 hours with free access to water prior to experiment; and fed together 2 hours after administration.
Blood sampling time points: 5 min (only administering intravenously), 0.25 h, 0.5 h, 1.0 h, 2.0 h, 4.0 h, 6.0 h, 8.0 h and 24 h after administration;
Sample treatment: 0.3 ml venous blood was obtained from rats' posterior ocular vein plexus at the above-mentioned time points, put into a heparinized tube, centrifuged for 5 minutes at 11000 rpm to separate plasma, then frozen in a refrigerator at −20° C.
The concentration of parent drugs in rat's plasma was detected by utilizing LC/MS/MS.
Wherein, F: absolute bioavailability; AUC: area under the curve; D: Dosage

[4] = biological target: PIM2 (Homo sapiens, UniProt Q9P1W9); assay: Assay of PIM kinase activity, PIM2; format: biochemical; settings: 6 concentrations, initial concentration 200 nM; read-out: IC50 PIM 2
PIM2, sequence (Q9P1W9 whole entry): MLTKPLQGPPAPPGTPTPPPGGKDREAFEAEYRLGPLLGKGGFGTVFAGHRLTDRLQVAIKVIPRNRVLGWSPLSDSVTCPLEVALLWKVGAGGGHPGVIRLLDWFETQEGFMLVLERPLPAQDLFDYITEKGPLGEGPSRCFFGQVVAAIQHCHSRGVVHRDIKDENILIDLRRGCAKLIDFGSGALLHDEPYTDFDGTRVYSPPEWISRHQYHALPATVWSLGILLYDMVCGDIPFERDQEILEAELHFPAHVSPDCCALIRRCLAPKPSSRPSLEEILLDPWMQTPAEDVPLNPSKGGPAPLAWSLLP
Procedure: (§1) Dose-dependent experiments on PIM1, PIM2 and PIM3 were commissioned to Shanghai Runnuo Biotechnology, 6 concentration gradients were set, the initial concentration was 30 nM, 200 nM and 30 nM, then diluted successively, the inhibitive effects of compounds on PIM kinase was tested, the results were shown in Table 9.

[5] = biological target: PIM3 (Homo sapiens, UniProt Q86V86); assay: Assay of PIM kinase activity, PIM3; format: biochemical; settings: 6 concentrations, initial concentration 30 nM; read-out: IC50 PIM 3
Procedure: as §1

[6] = biological target: PIM1 (Homo sapiens, UniProt P11309); assay: Assay of PIM kinase activity, PIM1; format: biochemical; settings: 6 concentrations, initial concentration 30 nM; read-out: IC50 PIM 1
PIM1, sequence (P11309 whole entry): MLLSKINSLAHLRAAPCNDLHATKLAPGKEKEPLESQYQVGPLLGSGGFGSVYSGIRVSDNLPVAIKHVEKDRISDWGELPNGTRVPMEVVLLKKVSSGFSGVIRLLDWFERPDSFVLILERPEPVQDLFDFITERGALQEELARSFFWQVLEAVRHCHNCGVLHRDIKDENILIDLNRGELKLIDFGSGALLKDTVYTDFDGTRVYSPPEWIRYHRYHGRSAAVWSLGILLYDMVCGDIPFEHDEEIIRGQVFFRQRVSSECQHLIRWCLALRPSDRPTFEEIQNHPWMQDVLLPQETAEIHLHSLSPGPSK
Procedure: as §1

[7] = Test of solubility in water (HPLC)
Procedure: Wherein, the chromatographic condition was shown as follows:
Chromatographic Column: C18
Column temperature: 25° C.
Mobile phase A: 0.1% TFA-water
Mobile phase B: 0.1% TFA-CAN

| Compound | Weight increased by hygroscopy [1] | Related substances Day 10 under high temperature [2] | Related substances Day 10 under illumination condition [2] | Related substances Day 0 [2] | Absolute Bioavailability [3] | IC50 [4] | IC50 [5] | IC50 [6] | melting point | solubility in water [7] | Weight increased by hygroscopy ([1]; listed as hydrochloride salt) | increase of the amount of related substance ([2]; after 10 days, heat, light) |
| --- | --- | --- | --- | --- | --- | --- | --- | --- | --- | --- | --- | --- |
| CC(O)C(=O)O.Nc1sc(-c2c(F)cccc2F)nc1C(=O)Nc1cncnc1OCC1CCNCC1 [EXAMPLE 11] | 3.67% | 10.78 | 5.67% | 0.54% | – | – | – | – | – | – | – | – |
| Nc1sc(-c2c(F)cccc2F)nc1C(=O)Nc1cncnc1OCC1CCNCC1.O=C(O)/C=C\C(=O)O [EXAMPLE 4] | 5.45% | 4.54 | 2.22% | 0.46% | – | – | – | – | – | – | – | – |
| CC(=O)O.Nc1sc(-c2c(F)cccc2F)nc1C(=O)Nc1cncnc1OCC1CCNCC1 [EXAMPLE 12] | 9.21% | 3.56 | 2.65% | 0.62% | 5.34% | – | – | – | – | – | – | – |
| Ascorbate [EXAMPLE 17] | 5.67% | 18.98 | 6.66% | 0.56% | – | – | – | – | – | – | – | – |
| Br.Nc1sc(-c2c(F)cccc2F)nc1C(=O)Nc1cncnc1OCC1CCNCC1 [EXAMPLE 3] | 4.32% | 3.45 | 1.67% | 0.52% | – | – | – | – | – | – | – | – |
| Nc1sc(-c2c(F)cccc2F)nc1C(=O)Nc1cncnc1OCC1CCNCC1 [EXAMPLE 1, 5-amino-2-(2,6-difluorophenyl)-N-(4-(piperidine-4-methoxy)pyrimidine-5-) thiazole-4-formamide] | 3.35% | 5.02 | 3.02% | 0.45% | 2.2% | 8.09 nM | 23 nM | 10 nM | – | – | – | – |
| Nc1sc(-c2c(F)cccc2F)nc1C(=O)Nc1cncnc1OCC1CCNCC1.O=C(O)/C=C/C(=O)O [EXAMPLE 15] | 4.77% | 9.12 | 6.54% | 0.56% | – | – | – | – | – | – | – | – |
| Nc1sc(-c2c(F)cccc2F)nc1C(=O)Nc1cncnc1OCC1CCNCC1.O=C(O)c1ccccc1 [EXAMPLE 9] | 7.53% | 5.56 | 4.44% | 0.56% | – | – | – | – | – | – | – | – |
| Nc1sc(-c2c(F)cccc2F)nc1C(=O)Nc1cncnc1OCC1CCNCC1.O=C(O)CC(O)(CC(=O)O)C(=O)O [EXAMPLE 8] | 5.67% | 7.34 | 5.52% | 0.52% | – | – | – | – | – | – | – | – |
| Palmitate [EXAMPLE 14] | 6.43% | 6.89 | 3.67% | 0.66% | – | – | – | – | – | – | – | – |
| Tartrate [EXAMPLE 16] | 7.88% | 6.89 | 3.33% | 0.63% | – | – | – | – | – | – | – | – |
| Cc1ccc(S(=O)(=O)O)cc1.Nc1sc(-c2c(F)cccc2F)nc1C(=O)Nc1cncnc1OCC1CCNCC1 [EXAMPLE 13] | 5.78% | 8.94 | 5.67% | 0.65% | – | – | – | – | – | – | – | – |
| Nc1sc(-c2c(F)cccc2F)nc1C(=O)Nc1cncnc1OCC1CCNCC1 (as salt: hydrochloride) [EXAMPLE 2] | – | – | – | – | – | – | – | – | 236.1 to 239.4 °C | – | – | – |
| CS(=O)(=O)O.Nc1sc(-c2c(F)cccc2F)nc1C(=O)Nc1cncnc1OCC1CCNCC1 [EXAMPLE 10] | 8.21% | 35.6 | 23% | 0.54% | 7.32% | – | – | – | – | – | – | – |
| Nc1sc(-c2c(F)cccc2F)nc1C(=O)Nc1cncnc1OCC1CCNCC1.O=S(=O)(O)O [EXAMPLE 7] | 3.56% | 4.67 | 2.45% | 0.52% | – | – | – | – | – | – | – | – |
| Nc1sc(-c2c(F)cccc2F)nc1C(=O)Nc1cncnc1OCC1CCNCC1.O=C(O)CCC(=O)O [EXAMPLE 6, Succinate] | 7.56% | 8.82 | 4.56% | 0.55% | – | – | – | – | – | – | – | – |
| Nc1sc(-c2c(F)cccc2F)nc1C(=O)Nc1cncnc1OCC1CCNCC1 [EXAMPLE 2] | 0.52% | 0.68 | 0.56% | 0.49% | 32.2% | 1.54 nM | 4.36 nM | 2.31 nM | – | about 1 mg/mL | 0.52% | ≤ 0.19% |
